Measurements as given in the supplement of paper PMC10307832.

Columns and labels:
Experiment in all cases: relative viability (nuclei count vs DMSO), 5 days (fraction); higher = more cells survive
NCI-H322M = tested on: NCI-H322M
Summary of the method: (§1)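 Cells from lung cancer lines were seeded into 1536-well plates and, one day later, dosed by pin tool. Treatments were either a single drug or a fixed dose of an anchor drug with five library-drug doses (not always all listed) in √10 steps. After 5 days, nuclei were stained in a one-step fixation (final 0.05% Triton X-100, 1% formaldehyde, 1 ug/ml Hoechst) and counted on 4× images, and relative viability is the treated-to-vehicle nuclei ratio, as the median of duplicate plates.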

NCI-H1944 = tested on: NCI-H1944
Summary of the method: as §1

NCI-H647 = tested on: NCI-H647
Summary of the method: as §1

NCI-H3122 = tested on: NCI-H3122
Summary of the method: as §1

201T = tested on: 201T
Summary of the method: as §1

LXF-289 = tested on: LXF-289
Summary of the method: as §1

NCI-H1792 = tested on: NCI-H1792
Summary of the method: as §1

NCI-H2228 = tested on: NCI-H2228
Summary of the method: as §1

BEN = tested on: BEN
Summary of the method: as §1

RERF-LC-KJ = tested on: RERF-LC-KJ
Summary of the method: as §1

NCI-H1395 = tested on: NCI-H1395
Summary of the method: as §1

LCLC-97TM1 = tested on: LCLC-97TM1
Summary of the method: as §1

SK-LU-1 = tested on: SK-LU-1
Summary of the method: as §1

HCC-827 = tested on: HCC-827
Summary of the method: as §1

NCI-H727 = tested on: NCI-H727
Summary of the method: as §1

NCI-H1793 = tested on: NCI-H1793
Summary of the method: as §1

CAL-12T = tested on: CAL-12T
Summary of the method: as §1

NCI-H1437 = tested on: NCI-H1437
Summary of the method: as §1

NCI-H1650 = tested on: NCI-H1650
Summary of the method: as §1

NCI-H2405 = tested on: NCI-H2405
Summary of the method: as §1

NCI-H2087 = tested on: NCI-H2087
Summary of the method: as §1

In the case of Nc1ccn([C@@H]2O[C@H](CO)[C@@H](O)[C@@H]2O)c(=O)n1 [Cytarabine] + CC1(C)CCC(c2ccc(Cl)cc2)=C(CN2CCN(c3ccc(C(=O)NS(=O)(=O)c4ccc(N[C@H](CCN5CCOCC5)CSc5ccccc5)c(S(=O)(=O)C(F)(F)F)c4)cc3)CC2)C1 [Navitoclax] (partner 0.5 µM), the relative viability (NCI-H322M; first compound 0.005 µM) is reported as 0.846, the relative viability (NCI-H322M; first compound 0.01581 µM) is reported as 0.787 and the relative viability (NCI-H322M; first compound 0.05 µM) is reported as 0.561. The relative viability (NCI-H322M; first compound 0.1581 µM) was 0.46, the relative viability (NCI-H322M; first compound 0.5 µM) was 0.366 and the relative viability (NCI-H1944; first compound 0.005 µM) was 0.605. It also gave a relative viability (NCI-H1944; first compound 0.01581 µM) of 0.363, a relative viability (NCI-H1944; first compound 0.05 µM) of 0.268 and a relative viability (NCI-H1944; first compound 0.1581 µM) of 0.198. The relative viability (NCI-H1944; first compound 0.5 µM) was 0.201, the relative viability (NCI-H647; first compound 0.005 µM) was 0.73 and the relative viability (NCI-H647; first compound 0.01581 µM) was 0.517. For the same compound, the relative viability (NCI-H647; first compound 0.05 µM) was 0.148, the relative viability (NCI-H647; first compound 0.1581 µM) was 0.092 and the relative viability (NCI-H647; first compound 0.5 µM) was 0.0675. For the same compound, the relative viability (NCI-H3122; first compound 0.005 µM) was 0.968, the relative viability (NCI-H3122; first compound 0.01581 µM) was 0.877 and the relative viability (NCI-H3122; first compound 0.05 µM) was 0.876. It also gave a relative viability (NCI-H3122; first compound 0.1581 µM) of 0.682, a relative viability (NCI-H3122; first compound 0.5 µM) of 0.457 and a relative viability (201T; first compound 0.005 µM) of 1.24. For the same compound, the relative viability (201T; first compound 0.01581 µM) was 1.28, the relative viability (201T; first compound 0.05 µM) was 1.19 and the relative viability (201T; first compound 0.1581 µM) was 1.16. It also gave a relative viability (201T; first compound 0.5 µM) of 1.14, a relative viability (LXF-289; first compound 0.005 µM) of 0.805 and a relative viability (LXF-289; first compound 0.01581 µM) of 0.944. The relative viability (LXF-289; first compound 0.05 µM) was 0.564, the relative viability (LXF-289; first compound 0.1581 µM) was 0.395 and the relative viability (LXF-289; first compound 0.5 µM) was 0.253. The relative viability (NCI-H1792; first compound 0.005 µM) was 0.339, the relative viability (NCI-H1792; first compound 0.01581 µM) was 0.55 and the relative viability (NCI-H1792; first compound 0.05 µM) was 0.223. It also gave a relative viability (NCI-H1792; first compound 0.1581 µM) of 0.304, a relative viability (NCI-H1792; first compound 0.5 µM) of 0.246 and a relative viability (NCI-H2228; first compound 0.005 µM) of 0.504. For the same compound, the relative viability (NCI-H2228; first compound 0.01581 µM) was 0.544, the relative viability (NCI-H2228; first compound 0.05 µM) was 0.0741 and the relative viability (NCI-H2228; first compound 0.1581 µM) was 0.0929. For the same compound, the relative viability (NCI-H2228; first compound 0.5 µM) was 0.0928, the relative viability (BEN; first compound 0.005 µM) was 0.059 and the relative viability (BEN; first compound 0.01581 µM) was 0.0619. For the same compound, the relative viability (BEN; first compound 0.05 µM) was 0.159, the relative viability (BEN; first compound 0.1581 µM) was 0.0433 and the relative viability (BEN; first compound 0.5 µM) was 0.0457. For the same compound, the relative viability (RERF-LC-KJ; first compound 0.005 µM) was 0.772, the relative viability (RERF-LC-KJ; first compound 0.01581 µM) was 1.02 and the relative viability (RERF-LC-KJ; first compound 0.05 µM) was 1.08. The relative viability (RERF-LC-KJ; first compound 0.1581 µM) was 0.509, the relative viability (RERF-LC-KJ; first compound 0.5 µM) was 0.325 and the relative viability (NCI-H1395; first compound 0.005 µM) was 1.2. The relative viability (NCI-H1395; first compound 0.01581 µM) was 0.849, the relative viability (NCI-H1395; first compound 0.05 µM) was 0.65 and the relative viability (NCI-H1395; first compound 0.1581 µM) was 0.48. It also gave a relative viability (NCI-H1395; first compound 0.5 µM) of 0.368, a relative viability (LCLC-97TM1; first compound 0.005 µM) of 0.401 and a relative viability (LCLC-97TM1; first compound 0.01581 µM) of 0.283. It also gave a relative viability (LCLC-97TM1; first compound 0.05 µM) of 0.171, a relative viability (LCLC-97TM1; first compound 0.1581 µM) of 0.107 and a relative viability (LCLC-97TM1; first compound 0.5 µM) of 0.115. It also gave a relative viability (SK-LU-1; first compound 0.005 µM) of 0.775, a relative viability (SK-LU-1; first compound 0.01581 µM) of 0.703 and a relative viability (SK-LU-1; first compound 0.05 µM) of 0.34. For the same compound, the relative viability (SK-LU-1; first compound 0.1581 µM) was 0.266, the relative viability (SK-LU-1; first compound 0.5 µM) was 0.179 and the relative viability (HCC-827; first compound 0.005 µM) was 0.615. The relative viability (HCC-827; first compound 0.01581 µM) was 0.529, the relative viability (HCC-827; first compound 0.05 µM) was 0.398 and the relative viability (HCC-827; first compound 0.1581 µM) was 0.264. For the same compound, the relative viability (HCC-827; first compound 0.5 µM) was 0.252, the relative viability (NCI-H727; first compound 0.005 µM) was 0.372 and the relative viability (NCI-H727; first compound 0.01581 µM) was 0.295. The relative viability (NCI-H727; first compound 0.05 µM) was 0.238, the relative viability (NCI-H727; first compound 0.1581 µM) was 0.181 and the relative viability (NCI-H727; first compound 0.5 µM) was 0.182. For the same compound, the relative viability (NCI-H1793; first compound 0.005 µM) was 0.273, the relative viability (NCI-H1793; first compound 0.01581 µM) was 0.333 and the relative viability (NCI-H1793; first compound 0.05 µM) was 0.271. The relative viability (NCI-H1793; first compound 0.1581 µM) was 0.261, the relative viability (NCI-H1793; first compound 0.5 µM) was 0.244 and the relative viability (CAL-12T; first compound 0.005 µM) was 1.24. The relative viability (CAL-12T; first compound 0.01581 µM) was 1.4, the relative viability (CAL-12T; first compound 0.05 µM) was 1.13 and the relative viability (CAL-12T; first compound 0.1581 µM) was 0.598. The relative viability (CAL-12T; first compound 0.5 µM) was 0.244, the relative viability (NCI-H1437; first compound 0.005 µM) was 0.875 and the relative viability (NCI-H1437; first compound 0.01581 µM) was 0.637. The relative viability (NCI-H1437; first compound 0.05 µM) was 0.469, the relative viability (NCI-H1437; first compound 0.1581 µM) was 0.214 and the relative viability (NCI-H1437; first compound 0.5 µM) was 0.175. For the same compound, the relative viability (NCI-H1650; first compound 0.005 µM) was 1.11, the relative viability (NCI-H1650; first compound 0.01581 µM) was 1.24 and the relative viability (NCI-H1650; first compound 0.05 µM) was 0.616. It also gave a relative viability (NCI-H1650; first compound 0.1581 µM) of 0.355, a relative viability (NCI-H1650; first compound 0.5 µM) of 0.18 and a relative viability (NCI-H2405; first compound 0.005 µM) of 0.851. The relative viability (NCI-H2405; first compound 0.01581 µM) was 0.671, the relative viability (NCI-H2405; first compound 0.05 µM) was 0.424 and the relative viability (NCI-H2405; first compound 0.1581 µM) was 0.373. The relative viability (NCI-H2405; first compound 0.5 µM) was 0.114, the relative viability (NCI-H2087; first compound 0.005 µM) was 0.973 and the relative viability (NCI-H2087; first compound 0.01581 µM) was 1.04. It also gave a relative viability (NCI-H2087; first compound 0.05 µM) of 0.924, a relative viability (NCI-H2087; first compound 0.1581 µM) of 0.542 and a relative viability (NCI-H2087; first compound 0.5 µM) of 0.452.
